Assay results: patent US20060051295A1, “Estrogen receptor interaction with a transcription factor” (priority 2002, published 2006)

What was measured:
Format in all cases: cell-based, human
[1] = system: ERα and c-Rel; test: NF-κB-responsive reporters in COS cells transfected with ERα and c-Rel; conditions: COS cells (B), ERα + cRel transfected
Text: This example describes an assay, based on the E-selectin or VCAM promoter in combination with ERα in the T24/ECV cell line. Note that for the ER/NF-κB transrepression assay the ECV304 cell line was used, which was believed to be the only endothelial cell line available that was suitable for producing stable ERα expressing clones. At a later stage ATCC reported that the ECV304 cells were no endothelial cells but, instead, were T24 bladder carcinoma cells. In order to enhance the cytokine induction and amount of repression by estrogens, multiple copies of NF-κB responsive regions of the E-Selectin and VCAM promoters were used to construct new reporters named ELAM1a, ELAM2, ELAM-HMG, VCAM1-2, VCAM2, and VCAM3 (for reporter details see appendix 1).
ECV304-ERα cells stably express ERα and endogenous c-Rel, whereas COS cells were transiently transfected with ERα, and, where indicated, c-Rel. Both cell types were co-transfected with the indicated E-selectin (ELAM) or VCAM promoter derived reporters.
Human osteosarcoma U-2 OS (HTB-96), monkey kidney COS-1 (CRL-1650) and human ECV304 (CRL-1998) cells have been obtained from ATCC (American Type Culture collection). ECV304 cells were sold by ATCC as human endothelial cells, however at a later stage ATCC informed us that this cell line was in fact the human bladder epithelial carcinoma cell line T24. Therefore, these cells are called T24/ECV in this report. ECV304/T24(-ERα), U-2 OS and COS-7 cells were grown in a 1:1 mixture of phenol red free Dulbecco's modified medium (DMEM) and Ham's F12 medium (=M505), supplemented with 10% fetal calf serum (FCS). Experiments were performed in M505+10% FCTS (fetal calf serum treated with dextran-coated charcoal to deplete serum from steroid activity).
The six NF-κB responsive reporters pHGL3-ELAM 1a, pHGL3-ELAM 2, pHGL3-ELAM HMG, pHGL3-VCAM 1-2, pHGL3-VCAM 2 and pHGL3-VCAM 3 (plasmid nr. 1921-1926 respectively) were constructed by ligating annealed primers in the Kpn I and Sac I sites of pHGL3-TATA. The primers were based on the NF-κB-RE sequences in the ELAM and the VCAM promoter (see Appendix 1). Several copies of the NF-κB-RE's were cloned in order the gain a higher absolute luciferase signal. The ELAM HMG construct contains a double repeat, while the other constructs contain three NF-κB -RE's. For primer and reporter sequences, see appendix 1.
(§1) For transient transfections, cells were seeded in 6-well plates (2.10^5 cells/well). After two or three days the cells were transfected with reporter, expression vectors and β-galactosidase control vector. Two different experimental settings were used. For testing transrepression of IL-1β induced promoter activity, cells were transfected with 1 μg reporter construct, 1 μg expression vector (containing either ERα, ERβ or GR), and 0.25 μg of β-galactosidase control plasmid. For testing transrepression in combination with c-Rel or ReLA overexpression, cells were transfected with 1 μg reporter construct, 1 μg expression vector (containing either ERα, ERβ or GR) and 0.1 or 1.0 μg expression vector containing c-Rel or RelA and 0.25 μg of β-galactosidase control vector. Equivalent amounts of DNA were obtained by adding the appropriate expression vector that lacks an insert. Transient transfection was performed using lipofectin reagent (Life Technologies). […] The transfected cells were incubated overnight with test compounds prior to cell lysis. Measurement of luciferase and P-galactosidase activity were performed using respectively the luciferase assay system (Promega) and Galacto-light plus (Tropix) according to the manufacturers' protocols and measured on the Victor 1420 multilabel counter, Wallac.

[2] = system: IL-6 production; test: IL-6 secretion by U-2OS cells stably expressing ERα (sandwich ELISA); conditions: U-2OS-ERα, IL-1β 125 pg/ml + IFNγ 10 ng/ml
Text: Estrogens maintain the balance between bone resorption and formation by inhibiting the production of cytokines by osteoblasts that stimulate osteoclast activity and thus bone resorption. We analysed the relevance of ER NF-κB transrepression on IL-6 production in more depth. When the pre-osteoblast cell line U-2 OS was stimulated with cytokines such as IL-1β, production of endogenous IL-6 protein is increased. However, when U-2OS cells are also exposed to IL-1β and estrogens, the increased production of IL-6 is repressed [Table 8].
Numbers are luminescence in counts per sec reflecting IL-6 produced by the cells
Secretion of endogenously produced IL-6 was measured by sandwich ELISA as outlined in Material and Methods.
For studying repression of human IL-6 secreted by U-2 OS cells that stably overexpress ERα (U-2 OS-ERα cells) a standard sandwich ELISA was used (ELISA kit of R&D systems #DY206). Cells were plated in 24 or 96 wells plates in M505+dextran-coated charcoal stripped serum (i.e. 10% BCTS) and allowed to grow to 90% confluency.
ELISA was performed according to the protocol of the manufacturer and as briefly described below. After overnight incubation of the cells with compounds in the appropriate concentration, the supernatants were transferred to 96 wells plates that had been coated overnight with anti-IL-6 capture antibody. Captured IL-6 was subsequently detected using a biotinylated anti-IL-6 detection antibody and Streptavidin-AP. Il-6 concentrations per well were subsequently quantified using the chemoluminescent substrate CSPD (Elisa-Light™, #EL100CY, Tropix), after which luminescence was determined in a Victor multilabel counter (Wallac).

[3] = system: IL-6 promoter; test: IL-6 promoter reporter in U-2 OS with ERα and NF-κB proteins / c/EBPβ
Method: To determine the role of functional ERα/c-Rel interactions in repression of IL-6 production by estrogens, we analysed the effect of various combinations of ERα and NF-κB proteins on IL-6 production using a reporter construct containing the promoter of the IL-6 gene.
as §1

C[C@]12CC[C@@H]3c4ccc(O)cc4CC[C@H]3[C@@H]1CC[C@@H]2O [Org E2, 17β-estradiol]
luciferase activity, ELAM1a reporter [1]: 7390 cps
luciferase activity, ELAM2 reporter [1]: 6223 cps
luciferase activity, ELAM-HMG reporter [1]: 61571 cps
luciferase activity, ELAM− reporter [1]: 90035 cps
luciferase activity, VCAM1-2 reporter [1]: 9107 cps
luciferase activity, VCAM2 reporter [1]: 4783 cps
luciferase activity, VCAM3 reporter [1]: 10781 cps
luciferase activity, VCAM reporter [1]: 51283 cps
Il-6 production (luminescence) ([2]; E2 0.001 nM): 136039 counts per sec
Il-6 production (luminescence) ([2]; E2 0.01 nM): 79230 counts per sec
Il-6 production (luminescence) ([2]; E2 0.1 nM): 50375 counts per sec
Il-6 production (luminescence) ([2]; E2 1 nM): 41070 counts per sec
luciferase activity, IL-6 promoter reporter ([3]; ERα + C/EBPβ): 2585
luciferase activity, IL-6 promoter reporter ([3]; ERα + RelA): 19401
luciferase activity, IL-6 promoter reporter ([3]; ERα + RelA + c/EBPβ): 92837
luciferase activity, IL-6 promoter reporter ([3]; ERα + RelA + p50): 8232
luciferase activity, IL-6 promoter reporter ([3]; ERα + c/EBPβ + p50): 1724
luciferase activity, IL-6 promoter reporter ([3]; ERα + cRel): 1807
luciferase activity, IL-6 promoter reporter ([3]; ERα + cRel + RelA): 23381
luciferase activity, IL-6 promoter reporter ([3]; ERα + cRel + c/EBPβ): 6459
luciferase activity, IL-6 promoter reporter ([3]; ERα + cRel + p50): 1814
luciferase activity, IL-6 promoter reporter ([3]; ERα + p50): 1447
luciferase activity, IL-6 promoter reporter ([3]; ERα, no NF-κB protein): 1310
